Converted amounts (≈) assume the structure as drawn. Like-named read-outs stand apart in the source and are kept apart here.
Assays:
[1] = molecular target: T1, IKKα (Homo sapiens, UniProt O15111); assay: DELFIA kinase assay, IKKα; format: biochemical; settings: DELFIA kinase assay
T1 sequence (O15111 1-745): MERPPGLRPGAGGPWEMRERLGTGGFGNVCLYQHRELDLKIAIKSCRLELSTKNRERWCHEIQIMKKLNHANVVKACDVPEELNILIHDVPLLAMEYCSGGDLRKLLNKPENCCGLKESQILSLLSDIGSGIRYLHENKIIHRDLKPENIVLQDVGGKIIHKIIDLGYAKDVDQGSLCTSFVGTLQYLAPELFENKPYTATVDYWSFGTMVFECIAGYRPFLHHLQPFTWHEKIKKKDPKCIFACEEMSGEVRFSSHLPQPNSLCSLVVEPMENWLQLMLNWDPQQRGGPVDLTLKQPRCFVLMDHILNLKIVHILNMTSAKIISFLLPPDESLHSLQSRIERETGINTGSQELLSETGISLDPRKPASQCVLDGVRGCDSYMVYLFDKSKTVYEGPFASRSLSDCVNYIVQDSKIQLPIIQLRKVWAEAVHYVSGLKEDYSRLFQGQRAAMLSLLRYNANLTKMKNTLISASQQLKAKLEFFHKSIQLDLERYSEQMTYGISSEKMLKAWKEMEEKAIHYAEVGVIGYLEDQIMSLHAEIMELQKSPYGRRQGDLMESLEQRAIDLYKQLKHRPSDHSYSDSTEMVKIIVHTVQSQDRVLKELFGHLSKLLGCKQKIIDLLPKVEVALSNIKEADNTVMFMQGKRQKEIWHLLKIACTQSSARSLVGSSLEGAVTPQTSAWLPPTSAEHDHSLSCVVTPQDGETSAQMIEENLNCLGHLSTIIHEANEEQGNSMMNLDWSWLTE
Source text: To examine the pyrrolo[2,3-b]pyridines as an alternative scaffold, we adopted the AIPP core because it had similar dimensions to SU909 (1), with HBD/HBA motifs positioned at the scaffold extremities to interact with both the hinge region and the G-loop wall of IKKα, a rationale we had previously proposed as the basis for imparting selectivity. A preliminary set of AIPP derivatives was designed and synthesised to explore its utility as an IKK-targeting scaffold, whilst incorporating additional functionality through which to introduce selectivity for the IKKα isoform (2–4; Figure 3). This was achieved by initially adopting two different approaches: either appending a hydrophobic moiety to the pyrrolo[2,3-b]pyridine motif as a fused form to afford the tricyclic derivatives 2 and 3, or as a phenyl substituent to introduce flexibility with respect to the central pyrrolo[2,3-b]pyridine moiety in 4. When assessed against IKKα and IKKβ using our in-house DELFIA kinase assay […] The pyrrolo[2,3-b]pyridine was bound to the hinge region in the classical HBA/HBD motif with the GK+3 amide backbone, whilst the aminoindazole projected towards the top of the pocket to interact with the G-loop (Figure 4A). […] In both isoforms, the 2-phenyl moiety protruded away from the hinge towards the exposed solvent area.
(§1) IKKα and IKKβ inhibitory activity were determined using a dissociation-enhanced ligand fluorescent immunoassay (DELFIA) based on the protocol of HTScan™ IKKβ Kinase Assay (Cell Signaling Technology, Danvers, MA, USA) as described in [24].

[2] = molecular target: T2, IKKβ (Homo sapiens, UniProt O14920); assay: DELFIA kinase assay, IKKβ; format: biochemical
T2 sequence (O14920 1-756): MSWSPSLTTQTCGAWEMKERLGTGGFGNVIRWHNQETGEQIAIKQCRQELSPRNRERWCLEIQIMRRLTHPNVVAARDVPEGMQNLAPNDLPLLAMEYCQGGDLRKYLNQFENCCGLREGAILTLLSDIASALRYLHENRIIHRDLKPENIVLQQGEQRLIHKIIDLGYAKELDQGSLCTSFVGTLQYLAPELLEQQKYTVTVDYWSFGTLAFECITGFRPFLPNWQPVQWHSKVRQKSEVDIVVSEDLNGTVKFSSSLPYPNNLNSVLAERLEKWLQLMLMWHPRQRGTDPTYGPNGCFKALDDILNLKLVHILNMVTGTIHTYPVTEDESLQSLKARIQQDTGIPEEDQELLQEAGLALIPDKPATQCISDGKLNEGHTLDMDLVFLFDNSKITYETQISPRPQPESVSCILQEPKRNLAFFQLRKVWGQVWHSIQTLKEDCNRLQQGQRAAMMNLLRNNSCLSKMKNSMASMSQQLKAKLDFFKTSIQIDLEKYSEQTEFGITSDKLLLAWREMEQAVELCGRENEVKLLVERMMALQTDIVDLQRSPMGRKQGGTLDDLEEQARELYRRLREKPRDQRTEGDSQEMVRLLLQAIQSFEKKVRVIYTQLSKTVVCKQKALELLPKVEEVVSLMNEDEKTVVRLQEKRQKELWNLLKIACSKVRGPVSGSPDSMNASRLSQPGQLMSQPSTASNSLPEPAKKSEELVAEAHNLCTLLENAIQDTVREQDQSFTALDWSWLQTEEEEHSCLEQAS
Description: as §1

[3] = Turbidimetric solubility; format: physicochemical; settings: pH 7.4, aqueous buffer, kinetic from dmso stock, 0.01 M phosphate-buffered saline pH7.4
Description: Pharmacokinetic studies were contracted to Sygnature Discovery Limited. Turbidimetric Solubility was determined by diluting compound solutions (1 μM, 3 μM, 10 μM, 30 μM, 100 μM) prepared in DMSO into 0.01 M phosphate-buffered saline pH7.4. Turbidimetry was used as the endpoint by measuring absorbance at 620 nm.

Row | SMILES | Ki [1] [nM] | Ki ([2]; read-out: Ki Values IKKβ) [nM] | solubility [3] [µM] | Ki ([2]; Ki Values IKKβ) [nM]
1 | Nc1n[nH]c2ccc(-c3ccnc4[nH]c(-c5ccccc5OCc5ccccc5)cc34)cc12 [Compound 5q] | 57 | 1060 |  | 
2 | Nc1n[nH]c2ccc(-c3ccnc4[nH]c(-c5ccnc(SCc6ccccc6)c5)cc34)cc12 [Compound 6h] | 5 | 1180 | 2 (≈ 0.897 µg/mL) | 
3 | Nc1n[nH]c2ccc(-c3ccnc4[nH]c(-c5ccnc(OCCc6ccccc6)c5)cc34)cc12 [Compound 6l] | 42 | 1600 |  | 
4 | COCCC(=O)Nc1cccc(-c2cc3c(-c4ccc5[nH]nc(N)c5c4)ccnc3[nH]2)c1 [Compound 5l] | 6 | 25 |  | 
5 | Nc1n[nH]c2ccc(-c3ccnc4[nH]c5ccccc5c34)cc12 [Compound 3] | 3 | 5 |  | 
6 | Nc1n[nH]c2ccc(-c3ccnc4[nH]c(-c5cccc(O)c5)cc34)cc12 [Compound 5d] | 5 | 26 |  | 
7 | Nc1n[nH]c2ccc(-c3ccnc4[nH]c(-c5cccc(S(=O)(=O)N6CCOCC6)c5)cc34)cc12 [Compound 5aa] | 25 | 149 |  | 
8 | COCCNc1cc(OCc2ccccc2)cc(-c2cc3c(-c4ccc5[nH]nc(N)c5c4)ccnc3[nH]2)c1 [Compound 6c] | 26 |  | 2 (≈ 1.01 µg/mL) | 1530
9 | Nc1n[nH]c2ccc(-c3ccnc4[nH]c(-c5cc(OCc6ccccc6)ccn5)cc34)cc12 [Compound 6j] | 25 | 2300 | 2 (≈ 0.865 µg/mL) | 
10 | CS(=O)(=O)c1cccc(-c2cc3c(-c4ccc5[nH]nc(N)c5c4)ccnc3[nH]2)c1 [Compound 5k] | 3 | 36 |  | 
11 | Nc1cccc(-c2cc3c(-c4ccc5[nH]nc(N)c5c4)ccnc3[nH]2)c1 [Compound 5c] | 5 | 28 |  | 
12 | COCCNC(=O)c1cccc(-c2cc3c(-c4ccc5[nH]nc(N)c5c4)ccnc3[nH]2)c1 [Compound 5m] | 15 | 107 |  | 
13 | CN1CCN(C(=O)c2cccc(-c3cc4c(-c5ccc6[nH]nc(N)c6c5)ccnc4[nH]3)c2)CC1 [Compound 5v] | 24 | 215 |  | 
14 | Nc1n[nH]c2ccc(-c3ccnc4[nH]c5c(c34)CCCC5)cc12 [Compound 2, 5-(6,7,8,9-Tetrahydro-5H-pyrido[2,3-b]indol-4-yl)-1H-indazol-3-amine] | 2 | 77 |  | 
15 | Nc1n[nH]c2ccc(-c3ccnc4[nH]c(-c5cccc(OCCN6CCOCC6)c5)cc34)cc12 [Compound 5y] | 9 | 29 |  | 
16 | Nc1n[nH]c2ccc(-c3ccnc4[nH]c(-c5ccc(OCc6ccccc6)cc5)cc34)cc12 [Compound 5s] | 16 | 189 |  | 
17 | Nc1n[nH]c2ccc(-c3ccnc4[nH]c(-c5cc(F)cc(OCc6ccccc6)c5)cc34)cc12 [Compound 6a] | 59 | 5030 |  | 
18 | COc1ccc(COc2cccc(-c3cc4c(-c5ccc6[nH]nc(N)c6c5)ccnc4[nH]3)c2)cc1 [Compound 5z] | 43 | 166 |  | 

Row | SMILES | Ki [1] [nM] | Ki ([2]; read-out: Ki Values IKKβ) [nM] | solubility [3] [µM] | Ki ([2]; Ki Values IKKβ) [nM]
19 | Cc1ccc(S(=O)(=O)Nc2cccc(-c3cc4c(-c5ccc6[nH]nc(N)c6c5)ccnc4[nH]3)c2)cc1 [Compound 5t] | 10 | 1050 |  | 
20 | Nc1n[nH]c2ccc(-c3ccnc4[nH]c(-c5cccc(CNc6ccccc6)c5)cc34)cc12 [Compound 5p] | 35 | 470 |  | 
21 | COc1cc(F)cc(-c2cc3c(-c4ccc5[nH]nc(N)c5c4)ccnc3[nH]2)c1 [Compound 5g] | 3 | 32 |  | 
22 | CCOc1ccccc1-c1cc2c(-c3ccc4[nH]nc(N)c4c3)ccnc2[nH]1 [Compound 5b] | 8 | 86 |  | 
23 | Nc1n[nH]c2ccc(-c3ccnc4[nH]c(-c5cccc(OCc6ccccn6)c5)cc34)cc12 [Compound 5w] | 16 | 402 |  | 
24 | COc1cccc(-c2cc3c(-c4ccc5[nH]nc(N)c5c4)ccnc3[nH]2)c1 [Compound 5e] | 5 | 40 |  | 
25 | Nc1n[nH]c2ccc(-c3ccnc4[nH]c(-c5ccc(OCc6ccccc6)nc5)cc34)cc12 [Compound 6d] | 12 | 22 |  | 
26 | Nc1n[nH]c2ccc(-c3ccnc4[nH]c(-c5cccc(C(=O)O)c5)cc34)cc12 [Compound 5h] | 8 | 168 |  | 
27 | CC(C)COc1cccc(-c2cc3c(-c4ccc5[nH]nc(N)c5c4)ccnc3[nH]2)c1 [Compound 5o] | 19 | 458 |  | 
28 | Nc1n[nH]c2ccc(-c3ccnc4[nH]c(-c5cc(F)nc(SCc6ccccc6)c5)cc34)cc12 [Compound 6i] | 127 | 3000 |  | 
29 | Nc1n[nH]c2ccc(-c3ccnc4[nH]c(-c5cccc(CNC6CCCC6)c5)cc34)cc12 [Compound 5n] | 10 | 191 |  | 
30 | Nc1n[nH]c2ccc(-c3ccnc4[nH]c(-c5cc(O)cc(F)c5)cc34)cc12 [Compound 5f] | 4 | 42 |  | 
31 | Nc1n[nH]c2ccc(-c3ccnc4[nH]c(-c5ccccc5O)cc34)cc12 [Compound 5a] | 4 | 42 |  | 
32 | Nc1n[nH]c2ccc(-c3ccnc4[nH]c(-c5cccc(OCC6CCOCC6)c5)cc34)cc12 [Compound 5x] | 8 | 122 |  | 
33 | NC(=O)c1cccc(-c2cc3c(-c4ccc5[nH]nc(N)c5c4)ccnc3[nH]2)c1 [Compound 5i] | 5 | 159 |  | 
34 | CS(=O)(=O)Nc1cccc(-c2cc3c(-c4ccc5[nH]nc(N)c5c4)ccnc3[nH]2)c1 [Compound 5j] | 3 | 109 |  | 
35 | Cc1ccc(S(=O)(=O)Nc2ccc(-c3cc4c(-c5ccc6[nH]nc(N)c6c5)ccnc4[nH]3)cc2)cc1 [Compound 5u] | 4 | 67 |  | 

From publication PMC11314561, “Design and Synthesis of Novel Aminoindazole-pyrrolo[2,3-b]pyridine Inhibitors of IKKα That Selectively Perturb Cellular Non-Canonical NF-κB Signalling” (Molecules, 2024)
